System: NCI/ADR-RES complex spheroid viability
Test: Anticancer human tumor NCI/ADR-RES cell line growth inhibition;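 also: spheroids exposed to compounds for 7 days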;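 as to viability, T/C: 100% = DMSO vehicle treated spheroids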
Conditions: for IC50: curve of first compound; for viability, T/C: stronger effect = lower value
From the text: Multicellular complex tumor spheroid response to LSD1 Inhibitor Iadademstat in combination with a variety of drugs and investigational agents in selected tumor cell lines
The current study was undertaken to assess response to LSD1 inhibitors in combination with standard-of-care drugs and investigational agents in solid tumor complex spheroid models as well as in the K-562 leukemia. Complex spheroids include a stromal component modeled by human endothelial cells (HUVEC) and fibroblasts modeled by human mesenchymal stem cells (MSCs). The concentration ranges selected for each drug and investigational agent were based upon clinically achievable concentrations if the clinical Cmax of the agent was known.
Compounds. The drugs and investigational agents used in this study are listed on Table 1. All of the agents used, including staurosporine (NSC755774) and gemcitabine (NSC613327), were obtained from the Developmental Therapeutics Program, NCI. FDA-approved anticancer drugs are available from the NCI at http://dtp.nci.nih.gov/branches/dscb/oncology_drugset_explanation.html. Drugs and investigational agents were >95% pure by proton nuclear magnetic resonance (NMR) and liquid chromatography/mass spectrometry (LC/MS). Stock solutions were prepared at 400x in DMSO, stored at -70 degrees C, and diluted in fresh medium prior to their use. The final concentration of DMSO in cell culture wells never exceeded 0.25% (v/v). The FDA-approved anticancer drug set is available from the Developmental Therapeutics Program at https://dtp.cancer.gov/organization/dscb/obtaining/available_plates.htm. All drugs and investigational agents were tested over a range starting from a high concentration at or near the clinical Cmax and decreasing in half-log increments. If the clinical Cmax for an agent had not been determined, the highest concentration tested was 10 microM.
Cell Lines. The patient-derived cancer cell (PDC) lines: 292921-168-R-J2-PDC, K24384-001-R-PDC, and 521955-158-R2-J5-PDC pancreatic carcinomas, 556581-035-R-J1 ovarian carcinoma, 324938-238-R-J1-PDC, 855422-203-R-J1-PDC and 883617-216-R-J1-PDC urothelial bladder carcinomas, 743489-274-T-PDC renal cell carcinoma, 138582-R-J1 Merkel cell tumor, K60290-347-R-J1 and K57222-313-R-J1-PDC glioblastomas, 653999-131-R-J2-PDC, LG0703-F948-PDC, and 349418-098-R-PDC non-small cell lung carcinomas, 885512-296-R-J2-PDC, 171881-019-R-J1-PDC breast carcinomas and 186277-243-T-J2-PDC and 233499-124-R-J2-PDC colon carcinomas were obtained from the NCI Patient-Derived Models Repository (PDMR, https://pdmr.cancer.gov). The established cell lines NCI/ADR-RES (RRID:CVCL_14520 and OVCAR-5 (RRID:CVCL_1628) ovarian carcinomas, 786-O (RRID:CVCL_1051) and A498 (RRID:CVCL_A498) renal cell carcinoma, NCI-H211 (ATCC, cat. CRL-5824; RRID:CVCL_1529), NCI-H196 (ATCC, cat. CRL-5823, RRID:CVCL_1509), SW 1271 (ATCC, cat. CRL-2177, RRID:CVCL_1716) and NCI-H1876 (ATCC, cat. CRL-5902, RRID:CVCL_1503) small cell lung carcinomas, MDA-MB-231 (RRID:CVCL_0062) and MDA-MB-468 (RRID:CVCL_0419)breast carcinomas (10-12). Pooled donor human umbilical vein endothelial cells (HUVEC, Lonza, cat. CC-2519) and human mesenchymal stem cells (hMSC, Lonza, cat. PT-2501) were purchased from Lonza (Walkersville, MD).
Cell Culture. All cells were maintained in an incubator at 37 degrees C and 5% CO2 with 95% humidity. The PDC lines were cultured according to standard operating procedures established by the NCI PDMR (https://pdmr.cancer.gov). Briefly all PDCs were thawed and cultured in Matrigel-coated flasks prepared with a working solution of 1X Ham's F-12 nutrient mix, without supplementation (Invitrogen, Waltham, MA, cat. 11765054), 100 U/mL penicillin-streptomycin (Invitrogen, cat. 15140122), and 2.5% Matrigel (Corning Inc., Corning, NY, cat. 354248) for the first three passages. […]

[1] = second compound 0.1 µM, first compound 0.00949 µM
[2] = second compound 0.1 µM, first compound 0.03 µM
[3] = second compound 0.1 µM, first compound 0.0949 µM
[4] = second compound 0.1 µM, first compound 0.3 µM
[5] = second compound 0.1 µM, first compound 0.949 µM
[6] = second compound 0.1 µM, first compound 3 µM
[7] = second compound 0.316 µM, first compound 0.00949 µM
[8] = second compound 0.316 µM, first compound 0.03 µM
[9] = second compound 0.316 µM, first compound 0.0949 µM
[10] = second compound 0.316 µM, first compound 0.3 µM
[11] = second compound 0.316 µM, first compound 0.949 µM
[12] = second compound 0.316 µM, first compound 3 µM
[13] = second compound 1 µM, first compound 0.00949 µM
[14] = second compound 1 µM, first compound 0.03 µM
[15] = second compound 1 µM, first compound 0.0949 µM
[16] = second compound 1 µM, first compound 0.3 µM
[17] = second compound 1 µM, first compound 0.949 µM
[18] = second compound 1 µM, first compound 3 µM
[19] = second compound 3.16 µM, first compound 0.00949 µM
[20] = second compound 3.16 µM, first compound 0.03 µM
[21] = second compound 3.16 µM, first compound 0.0949 µM
[22] = second compound 3.16 µM, first compound 0.3 µM
[23] = second compound 3.16 µM, first compound 0.949 µM
[24] = second compound 3.16 µM, first compound 3 µM
[25] = second compound 10 µM, first compound 0.00949 µM
[26] = second compound 10 µM, first compound 0.03 µM
[27] = second compound 10 µM, first compound 0.0949 µM
[28] = second compound 10 µM, first compound 0.3 µM
[29] = second compound 10 µM, first compound 0.949 µM
[30] = second compound 10 µM, first compound 3 µM

`Nc1ccccc1NC(=O)c1ccc(CNC(=O)OCc2cccnc2)cc1` + NC1CC1c1ccc(-c2cccc(O)c2)cc1 showed an IC50 (second compound 0.1 µM) of 824 nM, an IC50 (second compound 0.316 µM) of 907 nM and an IC50 (second compound 1 µM) of 906 nM. The IC50 (second compound 3.16 µM) was 976 nM, the IC50 (second compound 10 µM) was 882 nM and the viability, T/C [1] was 93.7%. The viability, T/C [2] was 97.9%, the viability, T/C [3] was 85.7% and the viability, T/C [4] was 69.1%. The viability, T/C [5] was 48.3%, the viability, T/C [6] was 27.2% and the viability, T/C [7] was 99.2%. It also gave a viability, T/C [8] of 95.9%, a viability, T/C [9] of 95% and a viability, T/C [10] of 72.8%. It also gave a viability, T/C [11] of 50.3%, a viability, T/C [12] of 25.8% and a viability, T/C [13] of 93.3%. For the same compound, the viability, T/C [14] was 91.1%, the viability, T/C [15] was 85.3% and the viability, T/C [16] was 71.5%. For the same compound, the viability, T/C [17] was 49.1%, the viability, T/C [18] was 26.7% and the viability, T/C [19] was 93.5%. The viability, T/C [20] was 89.5%, the viability, T/C [21] was 80.5% and the viability, T/C [22] was 71%. It also gave a viability, T/C [23] of 49.4%, a viability, T/C [24] of 30.8% and a viability, T/C [25] of 83.4%. For the same compound, the viability, T/C [26] was 84.1%, the viability, T/C [27] was 74.7% and the viability, T/C [28] was 60.9%. It also gave a viability, T/C [29] of 51.3% and a viability, T/C [30] of 31%.
In the case of `O=C(C=Cc1cccc(S(=O)(=O)Nc2ccccc2)c1)NO` + NC1CC1c1ccc(-c2cccc(O)c2)cc1, the IC50 (second compound 0.1 µM) is reported as 79.4 nM, the IC50 (second compound 0.316 µM) is reported as 85.5 nM and the IC50 (second compound 1 µM) is reported as 79 nM. It also gave an IC50 (second compound 3.16 µM) of 90 nM, an IC50 (second compound 10 µM) of 73.3 nM and a viability, T/C [1] of 110%. For the same compound, the viability, T/C [2] was 85.7%, the viability, T/C [3] was 42.1% and the viability, T/C [4] was 17.2%. The viability, T/C [5] was 5.63%, the viability, T/C [6] was 1.57% and the viability, T/C [7] was 102%. The viability, T/C [8] was 86.8%, the viability, T/C [9] was 44.9% and the viability, T/C [10] was 17.3%. It also gave a viability, T/C [11] of 7.86%, a viability, T/C [12] of 1.94% and a viability, T/C [13] of 107%. For the same compound, the viability, T/C [14] was 77.5%, the viability, T/C [15] was 46% and the viability, T/C [16] was 18.2%. For the same compound, the viability, T/C [17] was 8.7%, the viability, T/C [18] was 1.47% and the viability, T/C [19] was 97%. It also gave a viability, T/C [20] of 76.4%, a viability, T/C [21] of 49.8% and a viability, T/C [22] of 22.1%. For the same compound, the viability, T/C [23] was 9.4%, the viability, T/C [24] was 1.58% and the viability, T/C [25] was 102%. It also gave a viability, T/C [26] of 71.5%, a viability, T/C [27] of 44.1% and a viability, T/C [28] of 22.5%. It also gave a viability, T/C [29] of 13.5% and a viability, T/C [30] of 3.92%.

From PubChem BioAssay AID1918955 (Molecular Pharmacology Branch, DTP, NCI, 2023)
